Tests used:
Assay in all cases: KinomeScan profiling
Assay type in all cases: binding
[1] = biological target: T1, ITK (Homo sapiens, UniProt Q08881); details: read-out: % control
T1 construct: purchased KinomeScan®
T1 sequence (Q08881 1-620): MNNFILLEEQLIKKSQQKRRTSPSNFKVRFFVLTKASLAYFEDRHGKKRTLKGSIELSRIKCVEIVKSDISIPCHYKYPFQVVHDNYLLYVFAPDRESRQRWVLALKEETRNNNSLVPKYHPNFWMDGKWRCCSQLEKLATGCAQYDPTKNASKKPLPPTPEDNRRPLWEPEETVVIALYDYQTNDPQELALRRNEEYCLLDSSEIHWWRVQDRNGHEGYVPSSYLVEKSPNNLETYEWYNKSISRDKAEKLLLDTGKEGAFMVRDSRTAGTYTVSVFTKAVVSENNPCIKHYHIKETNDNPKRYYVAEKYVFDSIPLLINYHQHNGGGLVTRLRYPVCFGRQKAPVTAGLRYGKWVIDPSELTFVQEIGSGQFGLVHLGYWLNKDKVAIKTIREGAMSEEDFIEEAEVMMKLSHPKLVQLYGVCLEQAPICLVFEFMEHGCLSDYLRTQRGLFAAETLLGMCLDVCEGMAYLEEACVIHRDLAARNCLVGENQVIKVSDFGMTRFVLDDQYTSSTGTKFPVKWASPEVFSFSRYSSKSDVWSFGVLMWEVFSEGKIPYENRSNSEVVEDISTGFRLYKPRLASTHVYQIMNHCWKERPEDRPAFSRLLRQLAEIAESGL
Summary of the method: (§1)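 Normalised RLU (% control; DMSO 100%, positive control 0%) was measured for compounds dosed at 1 μM over 468 kinases, active cut-off <35%.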

[2] = biological target: PCTK2 (Homo sapiens, UniProt Q00537); details: PCTK2, 1 μM; read-out: % control
Summary of the method: as §1

[3] = biological target: OSR1 (Homo sapiens, UniProt O95747); details: OSR1, 1 μM; read-out: % control
Summary of the method: as §1

[4] = biological target: MRCKB (Homo sapiens, UniProt Q9Y5S2); details: read-out: % control
Summary of the method: as §1

[5] = biological target: T2, GRK3 (Homo sapiens, UniProt P35626); details: GRK3, 1 μM; read-out: % control
T2 sequence (P35626 1-688): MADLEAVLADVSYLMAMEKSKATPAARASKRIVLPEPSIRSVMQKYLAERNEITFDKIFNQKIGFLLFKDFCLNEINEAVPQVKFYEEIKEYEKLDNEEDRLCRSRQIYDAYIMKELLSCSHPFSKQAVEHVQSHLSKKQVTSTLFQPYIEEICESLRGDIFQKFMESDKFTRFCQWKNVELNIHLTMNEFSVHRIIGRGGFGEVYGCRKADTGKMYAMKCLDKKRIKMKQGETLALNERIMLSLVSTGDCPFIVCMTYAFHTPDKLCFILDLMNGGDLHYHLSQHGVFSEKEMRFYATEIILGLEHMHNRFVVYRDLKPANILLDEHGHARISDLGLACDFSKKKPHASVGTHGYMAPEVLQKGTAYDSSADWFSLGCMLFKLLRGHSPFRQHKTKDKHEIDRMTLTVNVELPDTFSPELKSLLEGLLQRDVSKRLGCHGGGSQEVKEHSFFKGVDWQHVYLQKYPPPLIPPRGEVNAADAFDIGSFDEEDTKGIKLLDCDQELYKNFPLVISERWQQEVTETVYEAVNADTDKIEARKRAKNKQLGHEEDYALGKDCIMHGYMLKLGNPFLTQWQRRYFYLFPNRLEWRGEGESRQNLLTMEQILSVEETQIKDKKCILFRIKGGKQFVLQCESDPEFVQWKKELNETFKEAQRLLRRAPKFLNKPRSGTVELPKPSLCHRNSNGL
Summary of the method: as §1

[6] = biological target: T3, CAMK4 (Homo sapiens, UniProt Q16566); details: CAMK4, 1 μM; read-out: % control
T3 sequence (Q16566 1-473): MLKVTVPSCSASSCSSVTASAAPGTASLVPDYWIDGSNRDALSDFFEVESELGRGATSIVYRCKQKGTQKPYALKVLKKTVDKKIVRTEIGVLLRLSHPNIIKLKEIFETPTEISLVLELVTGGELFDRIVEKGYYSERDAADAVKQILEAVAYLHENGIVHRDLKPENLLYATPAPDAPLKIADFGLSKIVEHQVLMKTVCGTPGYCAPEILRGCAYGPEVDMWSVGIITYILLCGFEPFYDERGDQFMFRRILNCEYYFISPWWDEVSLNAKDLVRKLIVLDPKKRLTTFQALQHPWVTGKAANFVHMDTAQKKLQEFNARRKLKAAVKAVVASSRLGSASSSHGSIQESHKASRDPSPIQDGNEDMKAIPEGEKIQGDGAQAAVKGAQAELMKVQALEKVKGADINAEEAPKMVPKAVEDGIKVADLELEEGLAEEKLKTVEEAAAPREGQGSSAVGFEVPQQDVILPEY
Summary of the method: as §1

[7] = biological target: EPHA2 (Homo sapiens, UniProt P29317); details: EPHA2, 1 μM; read-out: % control
Summary of the method: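 First, compounds in DMSO are added at 1 μM to each of 468 kinase assays. Next, RLU signals are normalised between positive control (0%) and DMSO (100%). Finally, kinases under 35% are flagged active.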

[8] = biological target: BTK (Homo sapiens, UniProt Q06187); details: read-out: % control
Summary of the method: as §1

[9] = biological target: HIPK3 (Homo sapiens, UniProt Q9H422); details: HIPK3, 1 μM; read-out: % control
Summary of the method: as §1

Chain of PCTK2 (Q00537 whole entry): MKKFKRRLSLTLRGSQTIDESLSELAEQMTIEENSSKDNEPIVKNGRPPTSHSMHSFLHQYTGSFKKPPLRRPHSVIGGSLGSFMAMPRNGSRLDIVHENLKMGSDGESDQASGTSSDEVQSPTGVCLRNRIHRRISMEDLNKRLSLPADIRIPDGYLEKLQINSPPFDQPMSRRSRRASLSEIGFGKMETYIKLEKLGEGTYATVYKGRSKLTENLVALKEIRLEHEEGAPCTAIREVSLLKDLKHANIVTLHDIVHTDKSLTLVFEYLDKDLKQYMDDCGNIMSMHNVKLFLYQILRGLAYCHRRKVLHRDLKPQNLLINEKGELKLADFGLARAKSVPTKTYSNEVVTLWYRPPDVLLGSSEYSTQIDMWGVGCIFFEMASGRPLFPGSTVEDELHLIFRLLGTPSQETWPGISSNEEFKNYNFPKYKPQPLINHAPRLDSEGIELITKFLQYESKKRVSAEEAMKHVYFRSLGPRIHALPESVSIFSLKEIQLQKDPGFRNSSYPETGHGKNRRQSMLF
Chain of OSR1 (O95747 whole entry): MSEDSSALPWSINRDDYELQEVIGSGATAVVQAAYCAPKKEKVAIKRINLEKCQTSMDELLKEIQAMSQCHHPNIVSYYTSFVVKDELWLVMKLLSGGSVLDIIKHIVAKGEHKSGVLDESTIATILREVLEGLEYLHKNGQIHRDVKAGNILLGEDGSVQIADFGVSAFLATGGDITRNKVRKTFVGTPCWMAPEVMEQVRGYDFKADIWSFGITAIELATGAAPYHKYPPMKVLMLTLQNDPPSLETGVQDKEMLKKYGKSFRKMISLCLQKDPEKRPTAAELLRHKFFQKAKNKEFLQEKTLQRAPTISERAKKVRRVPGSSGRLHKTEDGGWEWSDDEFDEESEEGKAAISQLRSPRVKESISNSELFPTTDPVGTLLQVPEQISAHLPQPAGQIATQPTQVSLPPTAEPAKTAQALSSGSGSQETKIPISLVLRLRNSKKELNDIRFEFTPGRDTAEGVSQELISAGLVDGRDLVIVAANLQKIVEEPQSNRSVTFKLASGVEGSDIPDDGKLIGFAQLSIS
Chain of MRCKB (Q9Y5S2 whole entry): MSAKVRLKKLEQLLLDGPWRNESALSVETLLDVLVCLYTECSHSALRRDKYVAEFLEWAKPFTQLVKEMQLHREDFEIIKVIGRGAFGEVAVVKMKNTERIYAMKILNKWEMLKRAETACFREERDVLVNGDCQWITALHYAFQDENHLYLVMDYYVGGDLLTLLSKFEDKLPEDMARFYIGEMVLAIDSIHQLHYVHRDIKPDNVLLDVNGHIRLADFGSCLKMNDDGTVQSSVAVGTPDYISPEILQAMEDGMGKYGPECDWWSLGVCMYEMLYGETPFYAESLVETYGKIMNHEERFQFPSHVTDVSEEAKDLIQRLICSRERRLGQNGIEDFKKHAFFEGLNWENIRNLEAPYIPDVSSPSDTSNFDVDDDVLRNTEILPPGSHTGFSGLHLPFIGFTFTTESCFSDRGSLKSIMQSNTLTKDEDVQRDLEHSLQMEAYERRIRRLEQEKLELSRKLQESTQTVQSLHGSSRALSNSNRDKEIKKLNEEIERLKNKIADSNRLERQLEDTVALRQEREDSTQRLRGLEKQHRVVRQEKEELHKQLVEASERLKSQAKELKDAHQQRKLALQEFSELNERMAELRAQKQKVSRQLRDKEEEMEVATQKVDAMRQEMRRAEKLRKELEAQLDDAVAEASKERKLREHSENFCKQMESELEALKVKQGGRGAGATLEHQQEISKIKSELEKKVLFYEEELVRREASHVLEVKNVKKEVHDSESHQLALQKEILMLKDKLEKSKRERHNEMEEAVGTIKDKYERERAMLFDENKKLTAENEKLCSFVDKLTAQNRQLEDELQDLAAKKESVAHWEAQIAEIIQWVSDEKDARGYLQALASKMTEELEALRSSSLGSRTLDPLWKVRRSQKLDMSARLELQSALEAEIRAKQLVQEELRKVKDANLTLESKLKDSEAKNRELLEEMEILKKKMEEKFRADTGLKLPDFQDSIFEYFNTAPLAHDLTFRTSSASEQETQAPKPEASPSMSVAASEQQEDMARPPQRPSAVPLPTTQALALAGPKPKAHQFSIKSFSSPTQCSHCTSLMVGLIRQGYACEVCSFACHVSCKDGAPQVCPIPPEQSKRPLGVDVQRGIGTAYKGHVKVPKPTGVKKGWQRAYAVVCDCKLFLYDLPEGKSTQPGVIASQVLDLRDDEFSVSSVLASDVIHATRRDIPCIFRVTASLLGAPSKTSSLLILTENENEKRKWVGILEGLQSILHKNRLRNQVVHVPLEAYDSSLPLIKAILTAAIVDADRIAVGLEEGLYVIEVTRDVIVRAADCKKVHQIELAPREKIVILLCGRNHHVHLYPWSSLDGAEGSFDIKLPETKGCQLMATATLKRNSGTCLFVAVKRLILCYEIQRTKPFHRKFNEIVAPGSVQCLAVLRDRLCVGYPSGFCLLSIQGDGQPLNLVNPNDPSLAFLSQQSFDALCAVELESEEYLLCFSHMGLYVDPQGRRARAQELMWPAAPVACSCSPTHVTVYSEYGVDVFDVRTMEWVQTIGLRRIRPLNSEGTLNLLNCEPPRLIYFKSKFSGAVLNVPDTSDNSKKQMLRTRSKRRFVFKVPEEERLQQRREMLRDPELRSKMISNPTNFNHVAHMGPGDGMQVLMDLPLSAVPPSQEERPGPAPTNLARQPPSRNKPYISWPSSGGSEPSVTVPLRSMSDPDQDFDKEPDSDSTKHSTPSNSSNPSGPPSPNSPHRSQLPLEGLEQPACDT
Chain of HIPK3 (Q9H422 whole entry): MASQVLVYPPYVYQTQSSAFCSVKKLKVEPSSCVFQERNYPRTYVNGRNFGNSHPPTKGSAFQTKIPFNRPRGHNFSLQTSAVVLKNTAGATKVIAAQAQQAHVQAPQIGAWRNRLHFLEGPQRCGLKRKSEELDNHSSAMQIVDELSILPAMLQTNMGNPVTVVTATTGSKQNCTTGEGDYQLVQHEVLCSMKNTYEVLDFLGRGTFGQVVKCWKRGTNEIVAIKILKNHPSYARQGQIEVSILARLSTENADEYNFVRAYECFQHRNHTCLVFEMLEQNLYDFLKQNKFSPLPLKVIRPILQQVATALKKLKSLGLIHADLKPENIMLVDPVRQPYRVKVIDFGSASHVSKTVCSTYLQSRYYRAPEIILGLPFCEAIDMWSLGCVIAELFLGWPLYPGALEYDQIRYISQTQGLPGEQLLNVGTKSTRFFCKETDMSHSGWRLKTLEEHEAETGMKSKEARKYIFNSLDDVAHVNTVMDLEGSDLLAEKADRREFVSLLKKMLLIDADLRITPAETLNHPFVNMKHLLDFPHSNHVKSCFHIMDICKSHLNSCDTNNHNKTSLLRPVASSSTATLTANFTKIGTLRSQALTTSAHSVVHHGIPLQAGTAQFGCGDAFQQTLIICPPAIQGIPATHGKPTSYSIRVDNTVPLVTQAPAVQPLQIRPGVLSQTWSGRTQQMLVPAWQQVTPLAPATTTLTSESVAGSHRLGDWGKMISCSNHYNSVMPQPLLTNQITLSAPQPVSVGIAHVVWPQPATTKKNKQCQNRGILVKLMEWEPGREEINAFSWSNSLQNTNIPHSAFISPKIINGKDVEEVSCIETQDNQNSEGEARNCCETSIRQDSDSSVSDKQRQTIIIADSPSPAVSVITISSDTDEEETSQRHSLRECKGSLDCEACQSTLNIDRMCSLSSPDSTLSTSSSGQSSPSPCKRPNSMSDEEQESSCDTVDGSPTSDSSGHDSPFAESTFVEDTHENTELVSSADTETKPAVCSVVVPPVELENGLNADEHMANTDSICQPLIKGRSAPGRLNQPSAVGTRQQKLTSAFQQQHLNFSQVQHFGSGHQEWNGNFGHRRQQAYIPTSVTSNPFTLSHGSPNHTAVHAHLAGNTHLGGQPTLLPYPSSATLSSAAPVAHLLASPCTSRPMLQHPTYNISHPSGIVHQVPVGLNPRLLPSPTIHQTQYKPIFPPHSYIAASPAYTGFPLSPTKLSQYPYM
Chain of BTK (Q06187 whole entry): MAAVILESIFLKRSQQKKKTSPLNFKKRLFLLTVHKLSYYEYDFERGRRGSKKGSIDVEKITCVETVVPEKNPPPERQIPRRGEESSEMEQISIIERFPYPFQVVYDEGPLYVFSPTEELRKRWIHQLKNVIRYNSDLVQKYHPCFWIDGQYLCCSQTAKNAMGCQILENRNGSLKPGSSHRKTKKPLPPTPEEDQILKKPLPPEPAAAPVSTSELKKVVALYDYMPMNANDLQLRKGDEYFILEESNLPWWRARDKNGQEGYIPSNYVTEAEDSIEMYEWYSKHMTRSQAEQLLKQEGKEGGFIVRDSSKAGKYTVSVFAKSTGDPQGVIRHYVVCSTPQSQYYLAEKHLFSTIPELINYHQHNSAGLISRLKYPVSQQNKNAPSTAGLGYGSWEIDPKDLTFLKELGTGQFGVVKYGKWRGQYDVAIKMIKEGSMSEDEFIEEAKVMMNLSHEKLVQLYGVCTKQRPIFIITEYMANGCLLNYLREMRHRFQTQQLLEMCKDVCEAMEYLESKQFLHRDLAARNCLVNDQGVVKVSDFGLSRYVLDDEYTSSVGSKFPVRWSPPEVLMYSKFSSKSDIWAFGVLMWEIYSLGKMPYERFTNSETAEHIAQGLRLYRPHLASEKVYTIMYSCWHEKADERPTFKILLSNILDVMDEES

Compound	remaining binding at 1 µM [1] [%]	remaining binding at 1 µM [2] [%]	remaining binding at 1 µM [3] [%]	remaining binding at 1 µM [4] [%]	remaining binding at 1 µM [5] [%]	remaining binding at 1 µM [6] [%]	remaining binding at 1 µM [7] [%]	remaining binding at 1 µM [8] [%]	remaining binding at 1 µM [9] [%]
CNc1c(-c2cnn([C@H]3CCN(C(C)=O)C[C@@H]3F)c2)cnc2[nH]cc(Cl)c12 [Compound 77, 1-((3S,4S)-4-(4-(3-chloro-4-(methylamino)-1H-pyrrolo[2,3-b]pyridin-5-yl)-1H-pyrazol-1-yl)-3-fluoropiperidin-1-yl)ethan-1-one]	71	100	75	86	93	100	96	68	85
CNc1c(-c2ccc(C(=O)N3CCC(N4CCOCC4)CC3)cc2)cnc2[nH]cc(Cl)c12 [Compound 96, (4-(3-chloro-4-(methylamino)-1H-pyrrolo[2,3-b]pyridin-5-yl)phenyl)(4-morpholinopiperidin-1-yl)methanone]	93	97	66	93	92	100	100	78	79
O=C(c1ccc(-c2cnc3[nH]cc(Cl)c3c2NC2CCCC2)cc1)N1CCC(N2CCOCC2)CC1 [Compound 101, (4-(3-chloro-4-(cyclopentylamino)-1H-pyrrolo[2,3-b]pyridin-5-yl)phenyl)(4-morpholinopiperidin-1-yl)methanone]	90	96	100	82	94	87	30	100	100
